The Ki is a dissociation constant, usually derived from enzyme kinetics or from competition with a known ligand. Broadly, the inhibition is the change of the read-out against control, counted positive when it falls. Low readings indicate a response near the control, high ones a response far below the control. The term ED50 denotes the midpoint of the dose-response relation.

Where a name gives a salt, the structure may show the parent alone. Read-outs that look alike come from different tables or passages of the source.

Data set [1] has as its system α2-adrenoceptor. To be noted: cited from earlier work; for hypotensive effect: animals and humans, magnitude relatively insignificant.
For data set [2], the target named is T1, Alpha2D adrenergic receptor (Rattus norvegicus, UniProt P22909).
T1 construct: aliquots of the synaptic membrane fraction; from tissue; host or cells: rat cerebral cortex, synaptic membrane fraction
T1 sequence (P22909 1-465): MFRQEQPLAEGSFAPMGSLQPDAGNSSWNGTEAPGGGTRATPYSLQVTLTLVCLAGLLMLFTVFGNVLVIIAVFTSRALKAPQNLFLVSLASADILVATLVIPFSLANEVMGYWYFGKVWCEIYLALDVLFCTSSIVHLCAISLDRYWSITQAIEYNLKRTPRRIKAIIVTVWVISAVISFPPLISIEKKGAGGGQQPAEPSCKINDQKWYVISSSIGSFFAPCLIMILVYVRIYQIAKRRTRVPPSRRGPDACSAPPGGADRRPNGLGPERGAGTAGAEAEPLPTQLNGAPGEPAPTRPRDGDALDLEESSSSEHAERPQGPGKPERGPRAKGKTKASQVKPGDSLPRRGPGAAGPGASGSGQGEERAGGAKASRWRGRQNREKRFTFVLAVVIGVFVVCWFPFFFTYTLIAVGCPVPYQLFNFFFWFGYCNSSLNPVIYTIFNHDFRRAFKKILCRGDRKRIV
The experiment in a line: Alpha2D adrenergic receptor binding assay (3H-paraaminoclonidine, rat cortex synaptic membranes). Details: species or system Wistar rats. As for the experimental part:
Alpha2D adrenergic receptor binding assay
Male, Wistar rats (150-250 g, VAF, Charles River, Kingston, N.Y.) are sacrificed by cervical dislocation and their brains removed and placed immediately in ice cold HEPES buffered sucrose. The cortex is dissected out and homogenized in 20 volumes of HEPES sucrose in a Teflon®-glass homogenizer. The homogenate is centrifuged at 1000 g for 10 min, and the resulting supernatant centrifuged at 42,000 g for 10 min. The resulting pellet is resuspended in 30 volumes of 3 mM potassium phosphate buffer, pH 7.5, preincubated at 25° C. for 30 min and recentrifuged. The resulting pellet is resuspended as described above and used for the receptor binding assay. Incubation is performed in test tubes containing phosphate buffer, 2.5 mM MgCl2, aliquots of the synaptic membrane fraction, the ligand ^3 H-paraaminoclonidine and test drug at 25°0 C. for 20 min. The incubation is terminated by filtration of the tube contents through glass fiber filter sheets. Following washing of the sheets with 10 mM HEPES buffer, the adhering radioactivity is quantified by liquid scintillation spectrometry.
Binding of the test drug to the receptor is determined by comparing the amount of radiolabeled ligand bound in control tubes without drug to the amount of radiolabeled ligand bound in the presence of the drug. Dose-response data are analyzed with LIGAND, a nonlinear curve fitting program designed specifically for the analysis of ligand binding data. This assay is described by Simmons, R. M. A., and Jones, D. J., Binding of [^3 H-]prazosin and [^3 H-]p-aminoclonidine to α-Adrenoceptors in Rat Spinal Cord, Brain Research 445:338-349, 1988.

Data set [3] deals with acetylcholine bromide-induced abdominal constriction response. The data set can be described thus: Mouse Acetylcholine Bromide-Induced Abdominal Constriction Assay. It is filed as in vivo. To be noted: p.o., 30 min before acetylcholine bromide 5.5 mg/kg i.p.; for inhibition at 30 mg/kg: @30 mpk; for ED50: po, 0.5 h, dose producing 50% analgesia. As for the experimental part:
Mouse Acetylcholine Bromide-Induced Abdominal Constriction Assay
The mouse acetylcholine bromide-induced abdominal constriction assay, as described by Collier et al. in Brit. J. Pharmacol. Chem. Ther., 32:295-310, 1968, with minor modifications was used to assess analgesic potency of the compounds herein. The test drugs or appropriate vehicle were administered orally (p.o.) and 30 minutes later the animal received an intraperitoneal (i.p.) injection of 5.5 mg/kg acetylcholine bromide (Matheson, Coleman and Bell, East Rutherford, N.J.). The mice were then placed in groups of three into glass bell jars and observed for a ten minute observation period for the occurrence of an abdominal constriction response (defined as a wave of constriction and elongation passing caudally along the abdominal wall, accompanied by a twisting of the trunk and followed by extension of the hind limbs). The percent inhibition of this response to a nociceptive stimulus (equated to % analgesia) was calculated as follows: The % Inhibition of response, i.e., % analgesia is equal to the difference between the number of control animals response and the number of drug-treated animals response times 100 divided by the number of control animals responding.
At least 15 animals were used for control and in each of the drug treated groups. At least three doses were used to determine each dose response curve and ED50 (that dose which would produce 50% analgesia). The ED50 values and their 95% fiducial limits were determined by a computer assisted probit analysis.

Data set [4] deals with α2-adrenoceptor. To be noted: non-opiate mechanism, without opiate liability; cited from earlier work.
Setting [5] is: 3H-paraaminoclonidine, rat cortex, 25° C, 20 min, read-out: Ki.

With `Cc1cccc(Cc2c[nH]cn2)c1C` [detomidine], the hypotensive effect result with α2-adrenoceptor [1] is “hypotensive in animals and in humans, but the magnitude of this cardiovascular effect is relatively insignificant”.

On to `Cc1cc(C(C)c2c[nH]cn2)c(C)s1` (stereo not shown), for which the inhibition constant Ki in data set [2] (setting [5]) was found to be 6.1 nM. The same compound showed an inhibition at 30 mg/kg in data set [3] of 100%.

On to `Cc1cc(Cc2c[nH]cn2)c(C)s1.O=C(O)/C=C/C(=O)O` [Cp-5, 4-[(2,5-dimethylthien-3-yl)methyl]-1H-imidazole Fumarate], for which the inhibitory constant (Ki) in data set [2] amounted to 0.69 nM. This compound registered a median effective dose (ED50) in data set [3] of 1.3 mg/kg. As for `Cc1cscc1Cc1c[nH]cn1.O=C(O)/C=C/C(=O)O` [Cp-2, 4-[(4-Methylthien-3-yl)methyl]-1H-imidazole Fumarate], in data set [2], affinity was put at a Ki of 0.47 nM. This compound came in with an ED50 in data set [3] of 0.4 mg/kg.

`CCc1cc(C(C)c2c[nH]cn2)c(CC)s1` (stereo not shown): the Ki in data set [2] (setting [5]) stood at 11.4 nM. This compound also gave an inhibition at 30 mg/kg in data set [3] of 67%. As to `Cc1csc(C)c1Cc1c[nH]cn1` [Cp-8, 4-[(2,4-Dimethylthien-3-yl)methyl]-1H-imidazole Fumarate], the inhibition constant Ki in data set [2] came out at 0.1 nM. The compound further yielded an inhibition at 30 mg/kg in data set [3] of 100%.

As for `CCc1cc(Cc2c[nH]cn2)c(CC)s1.O=C(O)/C=C/C(=O)O` [Cp-6, 4-[(2,5-diethylthien-3-yl)methyl]-1H-imidazole Fumarate], in data set [2], affinity was put at a Ki of 0.4 nM. The compound also came in with an ED50 in data set [3] of 3.7 mg/kg. For the compound `Cc1csc(C)c1C(C)c1c[nH]cn1` (stereo not shown), the Ki in data set [2] (setting [5]) turned out to be 33.5 nM. This compound also gave a median effective dose (ED50) in data set [3] of 7.8 mg/kg.

`Cc1cscc1C(C)c1c[nH]cn1.O=C(O)/C=C/C(=O)O` (stereo not shown) [Cp-3, 4-[1-(4-Methylthien-3-yl)ethyl]-1H-imidazole Fumarate] registered a Ki in data set [2] of 0.39 nM. The 50% effect level in data set [3] (ED50) was put at a dose of 0.4 mg/kg.

In data set [2], `CCC(c1c[nH]cn1)c1cscc1C` (stereo not shown) [Cp-4, 4-[1-(4-Methylthien-3-yl)propyl]-1H-imidazole Fumarate] had an inhibitory constant (Ki) of 0.97 nM. This compound yielded an inhibition at 30 mg/kg in data set [3] of 100%.

On to `C=C(c1c[nH]cn1)c1csc(Br)c1Br`, for which the Ki in data set [2] (setting [5]) worked out at 0.98 nM. Also, in data set [3], testing at 30 mg/kg gave an inhibition of 27%. As to `CC(c1ccsc1)c1c[nH]cn1` (stereo not shown), the Ki in data set [2] (setting [5]) came out at 2.5 nM. In data set [3], this compound displayed an inhibition at 30 mg/kg of 100%. Take `Clc1cccc(Cl)c1NC1=NCCN1` [Clonidine]: the “other behavioral and physiological effects” value in the data set on α2-adrenoceptor [1] (in vivo) is “sedation and cardiovascular effects”. In the data set on α2-adrenoceptor [4], the analgesia result is on record as “produce analgesia through a non-opiate mechanism”.

Take `Cc1cccc(C(C)c2cnc[nH]2)c1C` (racemic) [Medetomidine]: in the data set with α2-adrenoceptor [1], the hypotensive effect result was “hypotensive in animals and in humans, but the magnitude of this cardiovascular effect is relatively insignificant”. Compound `CCc1sccc1Cc1c[nH]cn1.O=C(O)/C=C/C(=O)O` [Cp-7, 4-[(2-ethylthien-3-yl)methyl]-1H-imidazole fumarate] showed an inhibition constant (Ki) in data set [2] of 0.07 nM. Besides, in data set [3], the ED50 is 0.4 mg/kg.

Consider `CCc1sccc1C(C)c1c[nH]cn1` (stereo not shown), for which the inhibition constant Ki in data set [2] (setting [5]) stood at 1.1 nM. The same compound displayed an inhibition at 30 mg/kg in data set [3] of 100%.

`Cc1sccc1Cc1c[nH]cn1` [Cp-1, 4-[(2-Methylthien-3-yl)methyl]-1H-imidazole Fumarate] returned a Ki in data set [2] of 0.44 nM. In data set [3], this compound registered an inhibition at 30 mg/kg of 100%. `CCc1cscc1Cc1c[nH]cn1` [Cp-9, 4-[(4-ethylthien-3-yl)methyl]-1H-imidazole fumarate] showed a Ki in data set [2] of 0.29 nM. In data set [3], this compound returned an inhibition at 30 mg/kg of 100%. As for `CCc1cscc1C(C)c1c[nH]cn1` (stereo not shown) [Cp-10, 4-[1-(4-ethylthien-3-yl)ethyl]-1H-imidazole fumarate], the Ki in data set [2] was found to be 0.28 nM. This compound also returned an inhibition at 30 mg/kg in data set [3] of 100%.

Take `c1nc(Cc2ccsc2)c[nH]1`: in data set [2] (setting [5]), the inhibitory constant (Ki) was found to be 3.1 nM. This compound also had a 50% effective dose (ED50) in data set [3] of 6.4 mg/kg.

Consider `Cc1sccc1C(C)c1c[nH]cn1` (stereo not shown), for which, in data set [2] (setting [5]), the inhibition constant (Ki) is 2.3 nM. For the same compound, in data set [3], it took a dose of 1.6 mg/kg to reach the 50% effect level (ED50).

Values taken from patent publication US5750720A, “4-[(thien-3-yl)methyl]-imidazole analgesics” (Ortho Pharmaceutical Corporation, priority 1996, dated 1998).
